In paper PMC4311242 (2015):

Experiments:
[1] = system: Mut1 (DNA, aptamer) TGGGGGTTGAAACTAAGCCGA; assay: fluorescence enhancement; settings: 10 mM NaCl; 10 mM Tris-HCl pH 7.2, 25 °C; excitation 501 nm, emission 530 nm
[2] = system: kanamycin-binding DNA aptamer (DNA, aptamer) TGGGGGTTGAGGCTAAGCCGA; assay: fluorescence enhancement; settings: 10 mM NaCl; 10 mM Tris-HCl pH 7.2, 25 °C; excitation 501 nm, emission 530 nm
[3] = system: kanamycin-binding DNA aptamer (DNA, aptamer) TGGGGGTTGAGGCTAAGCCGA; assay: TO fluorescent intercalator displacement; settings: 10 mM NaCl, 10 mM Tris-HCl pH 7.2, 25 °C
[4] = system: Mut2 (DNA, aptamer) TGGAAATTGAGGCTAAGCCGA; assay: TO fluorescent intercalator displacement; settings: 10 mM NaCl; 10 mM Tris-HCl pH 7.2, 25 °C; TO displaced; affinity comparable to parent aptamer
[5] = TO tracer 3.5:1 to DNA, tested at 20 µM

binding [3, 5]	Compound	also measured
	CN1C(=Cc2cc[n+](C)c3ccccc23)Sc2ccccc21	binding [1]: weak; binding [2]: yes
	NC[C@H]1O[C@H](O[C@H]2[C@H](O)[C@@H](O[C@H]3O[C@H](CO)[C@@H](O)[C@H](N)[C@H]3O)[C@H](N)C[C@@H]2N)[C@H](O)[C@@H](O)[C@@H]1O	binding ([3]; TO displaced, kanamycin 0.1-100 µM): yes; binding [4]: yes
no	COc1cc(NS(=O)(=O)c2ccc(N)cc2)nc(OC)n1	
no	O=C(N[C@H](CO)[C@H](O)c1ccc([N+](=O)[O-])cc1)C(Cl)Cl	
no	CN[C@@H]1[C@H](O[C@H]2[C@H](O[C@H]3[C@H](O)[C@@H](O)[C@H](N=C(N)N)[C@@H](O)[C@@H]3N=C(N)N)O[C@@H](C)[C@]2(O)C=O)O[C@@H](CO)[C@H](O)[C@H]1O	
no	CC1(C)S[C@@H]2[C@H](NC(=O)[C@H](N)c3ccccc3)C(=O)N2[C@H]1C(=O)O	
no	CN(C)[C@@H]1C(O)=C(C(N)=O)C(=O)[C@@]2(O)C(O)=C3C(=O)c4c(O)ccc(Cl)c4[C@@](C)(O)[C@H]3C[C@@H]12	
no	CN(C)[C@@H]1C(=O)C(C(N)=O)=C(O)[C@@]2(O)C(=O)C3=C(O)c4c(O)cccc4[C@@](C)(O)[C@H]3[C@H](O)[C@@H]12	
